Values quoted from earlier work in patent US5945417A, “Heterocyclic compounds, their preparation and use” (priority 1995, dated 1999).

Tests used:
[1] = tested on: metabotropic glutamate receptors; conditions: literature
mGluR1α = conditions: 1 mM quisqualate or glutamate; BHK cells expressing mGluR1α
control BHK cells = conditions: 1 mM quisqualate or glutamate
[2] = tested on: trans ACPD stimulated phosphoinositide hydrolysis; conditions: literature
[3] = tested on: release of dopamine in the rat brain; conditions: literature
MCAO model in mice = conditions: literature
nerve cell cultures = conditions: literature

## N[C@@H](Cn1oc(=O)[nH]c1=O)C(=O)O [quisqualate]
[1]
  action on the metabotropic glutamate receptors: non-selective agonists
mGluR1α
  fold increase over basal Pl-hydrolysis: 6-8 fold
Control BHK cells
  stimulation in control BHK cells: no stimulation

## CN[C@H](CC(=O)O)C(=O)O [NMDA]
[1]
  action on the metabotropic glutamate receptors: little effect

## C=C(C)[C@H]1CN[C@H](C(=O)O)[C@H]1CC(=O)O [kainate]
[1]
  action on the metabotropic glutamate receptors: little effect

## N[C@@H](CP(=O)(O)O)C(=O)O [L-AP3, L-2-amino-3-phosphonopropionic acid]
[1]
  action on the metabotropic glutamate receptors: partial agonist

## N[C@H](C(=O)O)c1ccc(C(=O)O)c(O)c1 [Compound S-4C3HPG, S-4-carboxy-3-hydroxyphenyl glycine]
[2]
  antagonism of trans ACPD stimulated phosphoinositide hydrolysis: antagonise trans ACPD stimulated phosphoinositide hydrolysis

## N[C@H](C(=O)O)c1ccc(C(=O)O)cc1 [Compound S-4CPG, S-4-carboxyphenyl glycine]
[2]
  antagonism of trans ACPD stimulated phosphoinositide hydrolysis: antagonise trans ACPD stimulated phosphoinositide hydrolysis

## C[C@@](N)(C(=O)O)c1ccc(C(=O)O)cc1 [S-MCPG, S-alpha methyl4-carboxyphenyl glycine]
[2]
  antagonism of trans ACPD stimulated phosphoinositide hydrolysis: antagonise trans ACPD stimulated phosphoinositide hydrolysis

## N[C@@]1(C(=O)O)CC[C@@H](C(=O)O)C1 [Trans-ACPD, trans 1S,3R-1-aminocyclopentane-1,3-dicarboxylicacid]
[3]
  release of dopamine in the rat brain: increase release of dopamine in the rat brain
[1]
  action on the metabotropic glutamate receptors: selectively activated
MCAO model in mice
  neuroprotection in an MCAO model in mice: neuroprotective agent
Nerve cell cultures
  inhibition of NMDA induced neurotoxicity: inhibit NMDA induced neurotoxicity

## Cc1onc(O)c1CC(N)C(=O)O (stereo not shown) [AMPA]
[1]
  action on the metabotropic glutamate receptors: little effect

## NC(C(=O)O)c1cc(O)no1 (stereo not shown) [ibotenate]
[1]
  action on the metabotropic glutamate receptors: non-selective agonists

## N[C@@H](CCC(=O)O)C(=O)O [L-glutamate]
mGluR1α
  fold increase over basal Pl-hydrolysis: 6-8 fold
